Source: patent publication US20060166900A1, “Salt of morphine-6-glucuronide” (CeNeS Limited, priority 2002, published 2006)

Assays:
Format in all cases: physicochemical
[1] = Stability of M6G salts at room temperature over 6 years, HPLC
[2] = Visual appearance on storage (Example 3)
In short: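 Aliquots (900 mg) kept at 2-8 °C beforehand were stored in argon-flushed brown opaque HDPE bottles at 25 °C/60% RH, 40 °C/75% RH and 60 °C. Visual appearance was assessed at set time points.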

[3] = Water content by Karl Fisher analysis on storage (Example 3)
In short: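 900 mg aliquots were held in argon-flushed brown opaque HDPE bottles at 25 °C/60% RH, 40 °C/75% RH and 60 °C. At each time point, water content (% w/w) was determined in duplicate on about 100 mg of equilibrated material by Karl Fischer titration.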

[4] = Colour of solution by visible spectrophotometry on storage (Example 3); conditions: 5% w/v solution in water
In short: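 5% w/v aqueous solution, absorbance at 420 nm in a 1 cm silica cell. Samples were stored in argon-flushed brown opaque HDPE bottles at 25° C./60% RH, 40° C./75% RH and 60° C.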

[5] = Stability indicating HPLC assay and related substances on storage (Example 3)
[6] = Storage stability of M6G base (general statement)

SMILES: CN1CC[C@]23c4c5ccc(O)c4O[C@H]2[C@@H](O[C@@H]2O[C@H](C(=O)O)[C@@H](O)[C@H](O)[C@H]2O)C=C[C@H]3[C@H]1C5 [Morphine-6-glucuronide base, morphine-6-β-D-glucuronide]
- HN-33177 ([1]; 0 years): 0.7%
- Unknown related substances (sum area %) ([1]; 0 years): <0.1 area %
- Assay M6G corr. ([1]; 0 years, content calculated as M6G derivative): 98.2%
- Assay M6G corr. ([1]; 5 years at ambient temperature): 81.2%
- HN-33177 ([1]; 5 years at ambient temperature): 0.8%
- Morphine ([1]; 5 years at ambient temperature): 0.3%
- Unknown related substances (sum area %) ([1]; 5 years at ambient temperature): 11.8 area %
- Appearance ([2]; 1 month, 25° C./60% RH): White crystalline powder
- Appearance ([2]; 1 month, 40° C./75% RH): Pale yellow crystalline powder
- Appearance ([2]; 1 month, 60° C.): Yellow crystalline powder
- Appearance ([2]; 3 months, 25° C./60% RH): White crystalline powder
- Appearance ([2]; 3 months, 25° C./60% RH, listed as base): white crystalline solids
- Appearance ([2]; 3 months, 40° C./75% RH): Yellow crystalline powder
- Appearance ([2]; Initial): White crystalline powder
- Moisture ([3]; 1 month, 25° C./60% RH): 9.00 % w/w
- Moisture ([3]; 1 month, 40° C./75% RH): 9.68 % w/w
- Moisture ([3]; 1 month, 60° C.): 8.21 % w/w
- Moisture ([3]; 3 months, 25° C./60% RH): 9.53 % w/w
- Moisture ([3]; 3 months, 40° C./75% RH): 9.85 % w/w
- Moisture ([3]; Initial): 9.80 % w/w
- moisture content across storage conditions ([3]; regardless of storage condition): reasonably consistent
- Colour ([4]; 1 month, 25° C./60% RH): 0.040 Abs@420 nm
- Colour ([4]; 1 month, 40° C./75% RH): 0.182 Abs@420 nm
- Colour ([4]; 1 month, 60° C.): 0.541 Abs@420 nm
- Colour ([4]; 3 months, 25° C./60% RH): 0.132 Abs@420 nm
- Colour ([4]; 3 months, 40° C./75% RH): 0.680 Abs@420 nm
- Colour ([4]; Initial): 0.017 Abs@420 nm
- Known Related Substances HN33177 ([5]; 1 month, 25° C./60% RH): 0.88%
- Known Related Substances HN75083 ([5]; 1 month, 25° C./60% RH): 0.05%
- M6G Assay, Anhydrous basis ([5]; 1 month, 25° C./60% RH): 99.61 % w/w
- M6G Assay, As is basis ([5]; 1 month, 25° C./60% RH): 90.77 % w/w
- M6G Assay, Corrected for the salt form ([5]; 1 month, 25° C./60% RH): 99.61 % w/w
- Total Known ([5]; 1 month, 25° C./60% RH): 0.93%
- Total Related Substances ([5]; 1 month, 25° C./60% RH): 1.00%
- Total Unknown ([5]; 1 month, 25° C./60% RH): 0.07%
- Known Related Substances HN33177 ([5]; 1 month, 40° C./75% RH): 0.85%
- Known Related Substances HN67003 ([5]; 1 month, 40° C./75% RH): 0.05%
- Known Related Substances HN75083 ([5]; 1 month, 40° C./75% RH): 0.03%
- M6G Assay, Anhydrous basis ([5]; 1 month, 40° C./75% RH): 99.45 % w/w
- M6G Assay, As is basis ([5]; 1 month, 40° C./75% RH): 89.94 % w/w
- M6G Assay, Corrected for the salt form ([5]; 1 month, 40° C./75% RH): 99.45 % w/w
- Total Known ([5]; 1 month, 40° C./75% RH): 0.93%
- Total Related Substances ([5]; 1 month, 40° C./75% RH): 1.27%
- Total Unknown ([5]; 1 month, 40° C./75% RH): 0.34%
- Known Related Substances HN33177 ([5]; 1 month, 60° C.): 0.83%
- Known Related Substances HN67003 ([5]; 1 month, 60° C.): 0.19%
- Known Related Substances HN75083 ([5]; 1 month, 60° C.): 0.02%
- M6G Assay, Anhydrous basis ([5]; 1 month, 60° C.): 96.18 % w/w
- M6G Assay, As is basis ([5]; 1 month, 60° C.): 89.31 % w/w
- M6G Assay, Corrected for the salt form ([5]; 1 month, 60° C.): 96.18 % w/w
- Total Known ([5]; 1 month, 60° C.): 1.04%
- Total Related Substances ([5]; 1 month, 60° C.): 2.31%
- Total Unknown ([5]; 1 month, 60° C.): 1.27%
- stability based on % w/w assay ([5]; 3 month assay data): most stable
- Known Related Substances HN33177 ([5]; 3 months, 25° C./60% RH): 0.86%
- Known Related Substances HN67003 ([5]; 3 months, 25° C./60% RH): 0.04%
- M6G Assay, Anhydrous basis ([5]; 3 months, 25° C./60% RH): 100.27 % w/w
- M6G Assay, As is basis ([5]; 3 months, 25° C./60% RH): 91.84 % w/w
- M6G Assay, Corrected for the salt form ([5]; 3 months, 25° C./60% RH): 100.27 % w/w
- Total Known ([5]; 3 months, 25° C./60% RH): 0.90%
- Total Related Substances ([5]; 3 months, 25° C./60% RH): 1.42%
- Total Unknown ([5]; 3 months, 25° C./60% RH): 0.52%
- Known Related Substances HN33177 ([5]; 3 months, 40° C./75% RH): 0.95%
- Known Related Substances HN67003 ([5]; 3 months, 40° C./75% RH): 0.23%
- Known Related Substances HN75076 ([5]; 3 months, 40° C./75% RH): 0.01%
- Known Related Substances Morphine ([5]; 3 months, 40° C./75% RH): 0.07%
- M6G Assay, Anhydrous basis ([5]; 3 months, 40° C./75% RH): 97.15 % w/w
- M6G Assay, As is basis ([5]; 3 months, 40° C./75% RH): 88.67 % w/w
- M6G Assay, Corrected for the salt form ([5]; 3 months, 40° C./75% RH): 97.15 % w/w
- Total Known ([5]; 3 months, 40° C./75% RH): 1.26%
- Total Related Substances ([5]; 3 months, 40° C./75% RH): 4.34%
- Total Unknown ([5]; 3 months, 40° C./75% RH): 3.08%
- increase in the amount of degradation products as measured by HPLC ([5]; 3 months, 40° C./75% RH): approximately 3%
- stability assessment ([5]; 25° C./60% RH, three months): relatively stable
- stability assessment ([5]; 40° C./75% RH over 3 months (base also 60° C. over 1 month)): shows signs of degradation
- Known Related Substances HN33177 ([5]; Initial): 0.87%
- Known Related Substances HN67003 ([5]; Initial): 0.05%
- Known Related Substances HN75083 ([5]; Initial): 0.06%
- M6G Assay, Anhydrous basis ([5]; Initial): 99.79 % w/w
- M6G Assay, As is basis ([5]; Initial): 91.07 % w/w
- M6G Assay, Corrected for the salt form ([5]; Initial): 99.79 % w/w
- Total Known ([5]; Initial): 0.98%
- Total Related Substances ([5]; Initial): 0.98%
- Total Unknown ([5]; Initial): 0.00%
- stability on storage ([6]; stored at room temperature): does degrade
- stability on storage ([6]; stored at −20° C.): stable
